Measured values from patent US20070191262A1, “Cancer Therapy and Prevention Based on Modulation of Complement activity” (University of Iowa Research Foundation, priority 2005, published 2007).
Like-named read-outs stand apart in the source and are kept apart here.

Assays:
Raji cells = assay: Complement-mediated killing of Raji cells in the presence of rituximab and serum from genotyped donors; assay type: cell-based, human
Description: FIG. 1—Percentage of live Raji cells after 72 hours incubation in the presence of rituximab and serum from donors with known C1qA[276] genotype.
(§1) C1qA polymorphism correlates with the ability of complement to opsonize and kill target cells in the presence of therapeutic antibodies. The inventors collected and coded serum samples from 10 healthy donors previously genotyped for C1qA[276A/G] polymorphism. The sera were extensively analyzed for function of complement and ability to opsonize target cells by members of an outside collaborative research group blinded to the identity of the donors and the C1q genotype. The results from killing experiments are presented in summary in FIG. 1. The experiments were designed to determine the ability of the complement from human sera to lyse and thus limit the proliferation of Raji cells, a CD20 expressing B-cell lymphoma cell line, in the presence of rituximab, an anti-CD20 monoclonal with extensive application in clinical therapy of lymphoma. […] The inventors are currently in the process of collecting additional sera for testing. In a one-way ANOVA, p value is 0.086 at this point. Assuming future results will go with the trend observed, the ANOVA test will be in the 0.002 range if only 2 homozygous of each kind are added, and excluding the heterozygous. A better test for this type of data would be Dunn's multiple comparison test. […]

[1] = system: C3b deposition on B-cell surface; assay: C3b opsonization of target cells in the presence of rituximab and donor serum (flow cytometry); assay type: cell-based, human; conditions: serum from homozygous A donors
From the text: FIG. 2—Level of C3b opsonization of B-cell surface in the presence of rituximab and serum from individuals with known C1qA[276] genotype.
as §1

follicular lymphoma = assay: Single agent rituximab therapy of follicular lymphoma, outcome by C1qA[276], CD32 and CD16 polymorphism; assay type: in vivo, human
Description: A polymorphism in the C1qA component of complement correlates with prolonged complete remission following rituximab therapy of follicular lymphoma. The non-coding polymorphism at C1qA[276] was examined in 90 patients with follicular lymphoma who were treated with rituximab (single agent) to assess whether a correlation exists between this genetic polymorphism of the complement pathway and clinical effectiveness of rituximab. The presence of an A versus a G allele at the C1qA[276] locus was determined using restriction fragment length polymorphism analysis by investigators blinded to the clinical outcome of the patients. The molecular and clinical data was then analyzed according to C1qA polymorphism, including measurement of radiographic response and duration of response, using methods similar to those used to evaluate the correlation between polymorphisms in CD16/CD32 genes and clinical outcome.
However, prolonged remission was noted among those subjects that achieved remission (either partial or complete response) for individuals who were carriers of the A allele at the C1qA[276] locus (AA or AG) compared to homozygous GG subjects. The strongest correlation was found among those subjects that achieved a complete remission to single agent rituximab. […] A allele was an independent factor for good prognosis, while FcγRIIIa 158 phenylalanine carrier and FcγRIIa 131 arginine carrier indicated poor survival. Thus, the relative risk was 0.2 for C1qA[276] AA/AG versus GG after controlling for CD32 and CD16 polymorphisms. The relative risks were 4.8 for CD32 HR versus HH and 6.16 for CD32 RR versus HH after controlling for complement and CD16 polymorphisms. The relative risks were 4.57 for CD16 VF against VV and 3.69 for CD16 FF versus VV after controlling for complement and CD32 polymorphisms.

[2] = cited from earlier work
[3] = patients with creatinine clearance >35 mL per minute; cited from earlier work
[4] = multiphasic clearance from plasma; cited from earlier work

Rituximab: monoclonal antibody that targets CD20, which is found on more than 90% of non-Hodgkin's lymphomas
average lysis of Raji cells (Raji cells; heterozygous sera): moderate efficiency
ability of serum complement to lyse Raji cells (Raji cells; serum of homozygous C1qA[276A] donors versus homozygous G, 72 hours, p<0.04): significant decrease
deposition of C3b molecules on the surface of target cells [1]: least efficient
difference in response rate based on C1qA polymorphisms (follicular lymphoma; 90 follicular lymphoma patients, single agent): No statistically significant difference
time to progression (follicular lymphoma; C1qA[276] AA/AG subjects who achieved complete remission): 830 days
relative risk (follicular lymphoma; C1qA[276] AA/AG versus GG, controlling for CD32 and CD16 polymorphisms): 0.2
time to progression (follicular lymphoma; C1qA[276] GG subjects who achieved complete remission): 250 days
relative risk (follicular lymphoma; CD16 FF versus VV, controlling for complement and CD32 polymorphisms): 3.69
relative risk (follicular lymphoma; CD16 VF against VV, controlling for complement and CD32 polymorphisms): 4.57
relative risk (follicular lymphoma; CD32 HR versus HH, controlling for complement and CD16 polymorphisms): 4.8
relative risk (follicular lymphoma; CD32 RR versus HH, controlling for complement and CD16 polymorphisms): 6.16
HR (time to progression) (follicular lymphoma; GG versus AA/AG, complete remission group, 95% CI=2.1-96.9): 4.1

Bleomycin
tissue concentration ([2]; hematopoietic tissue / bone marrow): low concentrations
tissue concentration ([2]; mice, skin, lungs, kidneys, peritoneum, lymphatics): high concentrations
serum or plasma terminal elimination half-life [3]: approximately 115 min

CC[C@]1(O)C[C@H]2CN(CCc3c([nH]c4ccccc34)[C@@](C(=O)OC)(c3cc4c(cc3OC)N(C=O)[C@H]3[C@@](O)(C(=O)OC)[C@H](OC(C)=O)[C@]5(CC)C=CCN6CC[C@]43[C@@H]65)C2)C1 [Vincristine]
terminal half-life [4]: about 24 hr
